System: Jurkat T cells
Assay type: cell-based, human
Details: IL-2 production level in treated group compared to control group; 48 hours treatment, then anti-CD3/anti-CD28 12 hours
Excerpt: Two preliminary screens were designed and performed.
To construct “blood chemical compound library for cell-based screening purposes, components such as antibodies that are difficult to distinguish due to a wide variety, and some supplements that only function at a whole organism level including fish oils and herbs were excluded. Physiological ranges of serum levels of individual blood chemicals are available in the human metabolome database (https://hmdb.ca/) and applied in the experimental design. For first screen 1a, Jurkat T cells were treated with blood chemical library for 48 hours and then activated with 2.5 μg/mL anti-CD3 and 0.5 μg/mL anti-CD28 antibodies for another 12 hours, followed by measurement of IL-2 level in medium supernatant using ELISA kit (Biolegend). For first screen 1b, 1×10^5 PD-1^+ Jurkat T cells were co-cultured with 2×10^4 H596 (PD-L1^+) cells in a well of 96-well plate for 60 hours, and then activated with 2.5 μg/mL anti-CD3 and 0.5 μg/mL anti-CD28 antibodies for another 12 hours, followed by measurement of IL-2 level in medium supernatant using ELISA kit. Please also refer to Resources Table and Table 1-2 for more details.

Compound	Relative changed percentage (%)
CC1=C(/C=C/C(C)=C/C=C/C(C)=C/C=C/C=C(C)/C=C/C=C(C)/C=C/C2=C(C)C[C@@H](O)CC2(C)C)C(C)(C)C[C@H](O)C1 [Zcaxanthin]	−1.652%
O=P([O-])([O-])O.[K+].[K+] [Dipotassium Phosphate]	−5.393%
[Br-].[K+] [POTASSIUM BROMIDE]	78.36%
[O]=[Zn] [Zinc Oxide]	3.627%
CCCCCCCCCCCCCCCC(=O)O [Palmitic Acid]	−2.643%
Cl.NCCCC[C@H](N)C(=O)O [L-Lysine hydrochloride]	−1.605%
[Cl][Cr]([Cl])[Cl] [Chromium Chloride]	−35.28%
O=C([O-])O.[Na+] [SODIUM BICARBONATE]	50.35%
O=C[C@H](O)[C@@H](O)[C@H](O)[C@H](O)C(=O)O [D-Glucuronic Acid]	−45.8%
CCCCCCCC/C=C\CCCCCCCCCCCC(=O)O [Erucic acid]	10.71%
O=C([O-])/C=C/C(=O)[O-].[Fe+2] [Ferrous Fumarate]	6.278%
VASOACTIVE INTESTINAL PEPTIDE	1.0212%
NC(=O)CC[C@H](N)C(=O)O [L-Glutamine]	25.52%
CC/C=C\C/C=C\C/C=C\CCCCCCCC(=O)O [Alpha-linolenic acid]	−24.53%
Alpha-Tocopherol [(+/−)-A-TOCOPHEROL/Alpha-Tocopherol]	40.65%
N[C@@H](Cc1cc(I)c(Oc2ccc(O)c(I)c2)c(I)c1)C(=O)[O-].[Na+] [′,5-TRIIODO-L-THYRONINE SODIUM SALT]	−13.42%
androsterone [AN[…],/androsterone]	15.91%
C[C@]12CC[C@@H]3c4ccc(O)cc4CC[C@H]3[C@@H]1CCC2=O [ESTRONE]	25.0199%
Cc1cc(O)cc2c1O[C@](C)(CCC[C@H](C)CCC[C@H](C)CCCC(C)C)CC2 [(+)-DELTA-TOCOPHEROL]	41.42%
N[C@@H](Cc1c[nH]c2ccccc12)C(=O)O [L-Tryptophan]	1.358%
CC1=C[C@H](O)CC(C)(C)C1/C=C/C(C)=C/C=C/C(C)=C/C=C/C=C(C)/C=C/C=C(C)/C=C/C1=C(C)CCCC1(C)C (stereo partly shown) [A-CRYPTOXANTHIN]	29.1%
C/C=C/C=C/C(=O)[O-].[K+] [Potassium sorbate]	−2.288%
CC1=C(/C=C/C(C)=C/C=C/C(C)=C/C=C/C=C(C)/C=C/C=C(C)/C=C/C2=C(C)C(=O)[C@@H](O)CC2(C)C)C(C)(C)C[C@H](O)C1=O [Astaxanthin]	12.26%
Chromium picolinate	−4.067%

Compound	Relative changed percentage (%)
CCCCCCCC/C=C\CCCCCCCCCCCCCC(=O)O [Nervonic acid]	37.68%
N[C@@H](Cc1ccc(O)cc1)C(=O)O [L-Tyrosine]	−13.45%
CELLULOSE FIBROUS	−13.2%
O=C([O-])CC(O)(CC(=O)[O-])C(=O)[O-].O=C([O-])CC(O)(CC(=O)[O-])C(=O)[O-].[Zn+2].[Zn+2].[Zn+2] [Zinc Citrate]	−2.073%
CCCCC/C=C\C/C=C\C/C=C\CCCCC(=O)O [Gamma linolenic acid]	9.058%
CC(C)CCC[C@@H](C)[C@H]1CC[C@H]2[C@@H]3CC=C4C[C@@H](O)CC[C@]4(C)[C@H]3CC[C@]12C [CHOLESTEROL]	−31.89%
MANGANESE SULFATE MONOHYDRATE [MANGANESE SULFATE MONOHYDRATE,]	−14.23%
[Cl-].[Cl-].[Mg+2] [MAGNESIUM CHLORIDE ANHYDROUS]	31.9%
Cc1ncc(C[n+]2csc(CCOP(=O)(O)OP(=O)(O)O)c2C)c(N)n1 [TIIIAMINE PYROPIIOSPIIATE]	9.753%
THYROCALCITONIN SALMON/calcitonin	11.37%
O=S(=O)([O-])[O-].[Cu+2] [Copper sulfate]	−26.32%
O=C([O-])[C@H](O)[C@@H](O)[C@H](O)[C@H](O)CO.[K+] [Potassium Gluconate]	97.7133%
O=S(=O)([O-])[O-].[O]=[V+2] [Vanadylsulfate]	7.094%
Zinc Picolinate	5.492%
Cl.NCCC[C@H](N)C(=O)O [L-ORNITHINE MONOHYDROCHLORIDE]	8.054%
O[C@H]1[C@H](O)[C@@H](O)[C@H](O)[C@@H](O)[C@H]1O [Inositol]	15.38%
SULFUR/sulfide	24.14%
Cc1c(O)cc2c(c1C)O[C@](C)(CCC[C@H](C)CCC[C@H](C)CCCC(C)C)CC2 [(+)-GAMMA-TOCOPHEROL]	1.56%
OC[C@H]1O[C@@](CO)(O[C@H]2O[C@H](CO)[C@@H](O)[C@H](O)[C@H]2O)[C@@H](O)[C@@H]1O [SUCROSE]	70.45%
NC(=O)c1cccnc1 [Niacinamide]	95.23%
O=P([O-])([O-])O.[K+].[K+] [Potassium Phosphate Dibasic]	177.4846%
Chondroitin sulfate sodium	−11.46%
O=C(O)c1cccnc1 [Nicotinic Acid]	205.6%
Nc1nc2c(ncn2[C@@H]2O[C@@H]3COP(=O)([O-])O[C@H]3[C@H]2O)c(=O)[nH]1.[Na+] [GUANOSINE 3′:5′-CYCLIC MONOPIIOSPIIATE SODIUM]	8.266%

Compound	Relative changed percentage (%)
O=S(=O)([O-])[O-].[Cu+2] [COPPER(II) SULFATE, ANHYDROUS,/copper, COPPER(II) SULFATE, ANHYDROUS]	51.65%
PROINSULIN C-PEPTIDE (55-89) [PROINSULIN C-PEPTIDE (55-89)/c-peptide]	17.8836%
COc1ccc2[nH]cc(CCNC(C)=O)c2c1 [MELATONIN CRYSTALLINE/melatonin, melatonin]	56.15%
Cl.NCCc1ccc(O)c(O)c1 [3-HYDRO[…]/dopamine, 3-HYDRO[…]]	18.78%
C-PEPTIDE FRAGMENT 3-33, HUMAN [C-PEPTIDE FRAGMENT 3-33, HUMAN/C-peptide]	−11.7%
CCCCC/C=C\C/C=C\C/C=C\C/C=C\CCCC(=O)O [Arachidonic acid]	4.583%
O=S(=O)([O-])[O-].[Mn+2] [Manganese sulfate]	29.55%
O=S(=O)([O-])[O-].[Na+].[Na+] [SODIUM SULFATE]	38.99%
CC(C)=O [ACETONE]	−31.07%
O=C(O)CC(O)(CC(=O)O)C(=O)O [Citric Acid]	−36.8%
CCCCC/C=C\C/C=C\CCCCCCCC(=O)O [linoleic acid]	−9.42%
[Cl][Cd][Cl] [CADMIUM CIILORIDE/cadmium, CADMIUM CIILORIDE]	32.11%
Cn1c(=O)c2c(ncn2C)n(C)c1=O [Caffeine]	170.0384%
CN(CC(=O)O)C(=N)N [Creatine]	−40.99%
C[C@@H](O)[C@H](N)C(=O)O [L-Threonine]	−6.543%
CC(C)[C@H](N)C(=O)O [L-Valine]	5.296%
FERRITIN TYPE IV FROM HUMAN LIVER	9.075%
N[C@@H](CSSC[C@H](N)C(=O)O)C(=O)O [L-Cystine]	−19.73%
O=c1c(O)c(-c2ccc(O)c(O)c2)oc2cc(O)cc(O)c12 [Quercetin]	−4.501%
O=C([O-])CC(O)(CC(=O)[O-])C(=O)[O-].[Na+].[Na+].[Na+] [Sodium citrate]	13.84%
N[C@@H](CCC(=O)N[C@@H](CS)C(=O)NCC(=O)O)C(=O)O [L-glutathione]	13.46%
CC1=CC(=O)C(C(C)C)=CC1=O [Thymoquinone]	4.558%
